According to the supplement of paper PMC10307832:

Experiments:
Assay in all cases: relative viability (nuclei count vs DMSO), 5 days (fraction); higher = more cells survive
QS11 + Vorinostat = compound: C1CC2=C(C1)C=C(C=C2)OC3=NC(=C4C(=N3)N(C=N4)CC5=CC=C(C=C5)C6=CC=CC=C6)N[C@@H](CC7=CC=CC=C7)CO [QS11] + O=C(CCCCCCC(=O)Nc1ccccc1)NO [Vorinostat] (partner 1 µM)
How it was run: (§1)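 Lung cancer cell lines in 1536-well plates were dosed by pin tool the day after seeding, either with one drug alone or with a fixed anchor-drug dose plus five library-drug doses (not always all listed) in √10 steps. After 5 days, cells were fixed and their nuclei stained in one step (final 0.05% Triton X-100, 1% formaldehyde, 1 ug/ml Hoechst), then counted on 4× images. Relative viability is the nuclei count in treated wells divided by that in vehicle wells. Values are medians of duplicate plates.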

[1] = compound: C[As](C)SC[C@H](NC(=O)CC[C@H](N)C(=O)O)C(=O)NCC(=O)O [Darinaparsin] + Cc1cc(Nc2cc(N3CCN(C)CC3)nc(Sc3ccc(NC(=O)C4CC4)cc3)n2)n[nH]1 [Tozasertib] (partner 0.1 µM)
How it was run: as §1

Darinaparsin + Olaparib = compound: C[As](C)SC[C@H](NC(=O)CC[C@H](N)C(=O)O)C(=O)NCC(=O)O [Darinaparsin] + O=C(c1cc(Cc2n[nH]c(=O)c3ccccc23)ccc1F)N1CCN(C(=O)C2CC2)CC1 [Olaparib] (partner 8 µM)
How it was run: as §1

QS11 + Pemetrexed = compound: C1CC2=C(C1)C=C(C=C2)OC3=NC(=C4C(=N3)N(C=N4)CC5=CC=C(C=C5)C6=CC=CC=C6)N[C@@H](CC7=CC=CC=C7)CO [QS11] + Nc1nc2[nH]cc(CCc3ccc(C(=O)N[C@@H](CCC(=O)O)C(=O)O)cc3)c2c(=O)[nH]1 [Pemetrexed] (partner 0.2 µM)
How it was run: as §1

Row | Cell Line | relative viability (QS11 + Vorinostat; first compound 0.08 µM) | relative viability (QS11 + Vorinostat; first compound 0.253 µM) | relative viability (QS11 + Vorinostat; first compound 0.8 µM) | relative viability (QS11 + Vorinostat; first compound 2.53 µM) | relative viability (QS11 + Vorinostat; first compound 8 µM) | relative viability ([1]; first compound 0.08 µM) | relative viability ([1]; first compound 0.8 µM) | relative viability ([1]; first compound 2.53 µM) | relative viability ([1]; first compound 8 µM) | relative viability (Darinaparsin + Olaparib; first compound 0.08 µM) | relative viability (Darinaparsin + Olaparib; first compound 0.8 µM) | relative viability (Darinaparsin + Olaparib; first compound 2.53 µM) | relative viability (Darinaparsin + Olaparib; first compound 8 µM) | relative viability (QS11 + Pemetrexed; first compound 0.08 µM) | relative viability (QS11 + Pemetrexed; first compound 0.253 µM) | relative viability (QS11 + Pemetrexed; first compound 0.8 µM) | relative viability (QS11 + Pemetrexed; first compound 2.53 µM) | relative viability (QS11 + Pemetrexed; first compound 8 µM)
1 | NCI-H1755 | 0.748 | 0.714 | 0.605 | 0.515 | 0.655 | 0.576 | 0.471 | 0.483 | 0.616 | 0.915 | 0.774 | 0.848 | 0.899 | 0.554 | 0.443 | 0.39 | 0.446 | 0.355
2 | NCI-H650 | 0.496 | 0.414 | 0.333 | 0.416 | 0.45 | 0.788 | 0.693 | 0.792 | 0.807 | 0.368 | 0.361 | 0.418 | 0.34 | 0.834 | 0.819 | 0.83 | 0.841 | 0.839
3 | NCI-H1437 | 0.894 | 0.751 | 0.616 | 0.609 | 0.39 | 0.439 | 0.394 | 0.353 | 0.434 | 0.705 | 0.623 | 0.615 | 0.689 | 0.314 | 0.331 | 0.301 | 0.286 | 0.271
4 | NCI-H460 | 0.938 | 0.811 | 0.541 | 0.687 | 0.212 | 0.735 | 0.438 | 0.326 | 0.792 | 0.614 | 0.413 | 0.435 | 0.324 | 0.056 | 0.0683 | 0.0585 | 0.0792 | 0.0751
5 | HARA | 0.498 | 0.565 | – | 0.506 | 0.431 | 0.153 | 0.103 | 0.125 | 0.0804 | 0.598 | – | 0.769 | 0.779 | 0.251 | – | 0.215 | 0.244 | 0.256
6 | NCI-H2085 | 0.743 | 0.72 | 0.699 | 0.912 | 0.806 | 0.953 | 0.814 | 0.78 | 0.892 | 0.866 | 0.775 | 0.792 | 0.745 | 0.879 | 0.841 | 0.925 | 1.04 | 1.01
7 | NCI-H1395 | 0.649 | 0.752 | 0.772 | 0.814 | 0.823 | 0.839 | 0.771 | 0.765 | 0.723 | 0.457 | 0.441 | 0.407 | 0.404 | 0.84 | 0.911 | 1.09 | 0.917 | 1.16
